Measured values taken from EP4782434A1, “N-SULFONYL CARBOXAMIDE COMPOUND, AND PREPARATION METHOD THEREFOR AND USE THEREOF” (Nutshell Therapeutics (Shanghai) Co., Ltd., priority 2023, dated 2025).
In brackets after ≈: the same amount, converted by molar mass.

How the values were obtained:
[1] = Thermodynamic solubility determination in FaSSIF; assay type: physicochemical; conditions: thermodynamic from solid, FaSSIF pH 6.5, 37°C
Method: • (1) The control compound, diclofenac sodium, was purchased from Sigma. • (2) FaSSIF, FeSSIF & FaSSGF (FFF02) powders were purchased from Biorelevant. • (3) 1.5 mL flat-bottom glass vials (purchased from local suppliers); PTFE/silicone septa (BioTech Solutions); PTFE-coated stir bars (V&P Scientific); MultiScreenHTS HV (0.45 µm) 96-well plates (Millipore, MSHVN4510 or MSHVN4550); Eppendorf Thermomixer Comfort; Vacuum Manifold ORVMN96 (Orochem).
0.420 g of NaOH, 3.438 g of NaH2PO4, and 6.186 g of NaCl were dissolved in approximately 900 mL of ultrapure water, and the pH of the solution was adjusted to 6.5 using 1N NaOH or 1N HCl. The solution was then diluted to 1000 mL with ultrapure water at room temperature.
2.240 g of FaSSIF, FeSSIF, and FaSSGF powder was added to approximately 500 mL of Buffer A. The mixture was stirred until the powder was completely dissolved. The solution was then diluted to 1000 mL with Buffer A at room temperature.
The solution was allowed to stand for 2 hours. The solution became slightly opalescent and was ready for use at that point. Note: it was to be used within 48 hours at room temperature or within 24 hours at 37°C.
(2) The test compounds and control compounds were weighed for solubility measurement (approximately 1.0 mg each in three separate 1.5 mL glass vials).
(3) For each compound, one vial served as a standard, and the other two vials were used for solubility measurement in duplicate.
(4) Each compound was placed sequentially into its appropriate 96-well plate. One plate served as the standard plate and the other as the sample plate.
(5) Based on the mass of the sample in each vial on the sample plate, an appropriate volume (approximately 1000 µL) of FaSSIF was added to each vial of the solubility sample plate using a pipette. […]
All calculations were performed using Microsoft Excel. Analysis and quantification of the sample filtrates were completed via LC-MS/MS by qualitative and quantitative comparison against the peaks of standards with known concentrations. […]

[2] = Pharmacokinetic study in rats; assay type: in vivo; conditions: rat, plasma; male Wistar-Han rats, dose 30 mg/kg; route not stated in the table (oral gavage vehicle given)
Method: • 1. Experimental objective: To test the pharmacokinetics of the compounds in in vivo experiments using Wistar-Han rats. • 2. Experimental instruments and materials:
Animal: Wistar-Han rats (male)
Oral gavage: 1% methylcellulose aqueous solution.
Six male rats were used. On the evening prior to administration, the animals were fasted, with free access to water. During the experimental period, […] had free access to food and water. The animals were administered either by intravenous injection or intragastric gavage, after which the status of the animals was observed and any abnormal manifestations were recorded. Blood was collected via jugular vein puncture at 0.0833, 0.25, 1, 2, 4, 8, and 24 hours following intravenous administration; and at 0.25, 0.5, 1, 2, 4, 6, 8, and 24 hours following intragastric gavage. […]
A standard curve was established using the internal standard method, with the theoretical concentrations of the standard curve as the abscissa and the peak area ratio (peak area of test compound / peak area of internal standard) as the ordinate. […] Unknown samples were calculated via the standard curve. Pharmacokinetic parameters were calculated using the non-compartmental analysis (NCA) model of WinNonlin 8.2 software and presented in the report. […]

SMILES: COc1cnc(Cl)cc1-c1cc(C)ncc1C(=O)Nc1nnc(OC[C@H]2COCCO2)s1 [Ref. 1, reference compound]
- solubility ([1]; 24 hours): 31 µg/mL (≈ 64.9 µM)

SMILES: [2H]C([2H])([2H])O[C@@H](C)c1ccc(CS(=O)(=O)NC(=O)c2ccc(C([2H])([2H])[2H])cc2-c2cc(C(F)F)ncc2OC)cc1 [cpd-16, (S)-2-(2-(Difluoromethyl)-5-methoxypyridin-4-yl)-N-((4-(1-(methoxy-d3)ethyl)benzyl)sulfonyl)-4-(methyl-d3)benzamide]
- solubility at 24 h [1]: 669 µg/mL (≈ 1310 µM)

SMILES: [2H]C([2H])([2H])O[C@@H](C)c1ccc(CS(=O)(=O)NC(=O)c2ccc(C([2H])([2H])[2H])cc2-c2cc(Cl)ncc2OC)cc1 [cpd-17, (S)-2-(2-Chloro-5-methoxypyridin-4-yl)-N-((4-(1-(methoxy-d3)ethyl)benzyl)sulfonyl)-4-(methyl-d3)benzamide]
- solubility at 24 h [1]: 511 µg/mL (≈ 1030 µM)
- AUC(0-t) [2]: 11700 ng·h/mL
- Cmax [2]: 8300 ng/mL
